In ChEMBL document CHEMBL5154808, “Novel β-Hairpin Antimicrobial Peptides Containing the β-Turn Sequence of -RRRF- Having High Cell Selectivity and Low Incidence of Drug Resistance” (J Med Chem, 2022):
Values after ≈ are worked out from the molar mass of the structure shown. Active and inactive are the calls of the source. The calls are words filed in the database; no cut-off is given here. Where a SMILES comes first, the peptide text is derived from it. Bridges are numbered along the chain shown (N, C = ends). [ ]: non-standard residue; d: D form. The star is where a group is joined. X1 = CC[C@H](C)CCCCC(=O)*; Dab = NCC[C@H](N)C(=O)O

Tests used:
[1] = Acute toxicity in Kunming mouse assessed as increased interalveolar space at 25 mg/kg, ip by H and E staining based analysis; assay type: organism-based; settings: in vivo
[2] = Acute toxicity in Kunming mouse assessed as distortion of alveolar morphology at 25 mg/kg, ip by H and E staining based analysis; assay type: organism-based; settings: in vivo
Pseudomonas aeruginosa = assay: Antimicrobial activity against Pseudomonas aeruginosa ATCC 27853 assessed as reduction of bacterial growth incubated for 18 hrs by CLSI protocol based broth microdilution method; assay type: functional
Staphylococcus aureus [3] = assay: Antibacterial activity against Staphylococcus aureus ATCC 25923 infected in BALB/c mouse assessed as reduction in bacterial load in lung at 5 to 10 mg/kg, ip measured after 4 to 12 hrs (reference value: 5.6 x 10^6 CFU/g); assay type: functional; settings: dose 5-10 mg/kg, time 4-12 hrs
Enterococcus faecalis = assay: Antimicrobial activity against Enterococcus faecalis ATCC 29212 assessed as reduction of bacterial growth incubated for 18 hrs by CLSI protocol based broth microdilution method; assay type: functional
Escherichia coli [4] = assay: Synergistic antibacterial activity against meropenem-resistant Escherichia coli ATCC 25922 assessed as fractional inhibitory concentration index incubated for 18 hrs in presence of meropenem by checker board assay; assay type: functional
Escherichia coli [5] = assay: Synergistic antibacterial activity against kanamycin-resisitant Escherichia coli ATCC 25922 assessed as fractional inhibitory concentration index incubated for 18 hrs in presence of kanamycin by checker board assay; assay type: functional
Escherichia coli [6] = assay: Synergistic antibacterial activity against rifampicin-resistant Escherichia coli ATCC 25922 assessed as fractional inhibitory concentration index incubated for 18 hrs in presence of rifampicin by checker board assay; assay type: functional
[7] = Cytotoxicity against human HK-2 cells assessed as reduction in cell viability incubated for 1 hr by resazurin based microplate reader method; assay type: toxicity
Staphylococcus aureus [8] = assay: Synergistic antibacterial activity against rifampicin-resistant Staphylococcus aureus ATCC 25923 assessed as fractional inhibitory concentration index incubated for 18 hrs in presence of rifampicin by checker board assay; assay type: functional
[9] = Acute toxicity in Kunming mouse assessed as pulmonary congestion at 25 mg/kg, ip by H and E staining based analysis; assay type: organism-based; settings: in vivo
Cell membrane [10] = assay: Induction of cytoplasmic membrane depolarization in Staphylococcus aureus ATCC 25923 assessed as increase in fluorescence intensity at 4 times MIC measured after 1 min by DiSC3-5 dye based fluorescence method; assay type: subcellular
Bacillus subtilis = assay: Antimicrobial activity against Bacillus subtilis ATCC 23857 assessed as reduction of bacterial growth incubated for 18 hrs by CLSI protocol based broth microdilution method; assay type: functional
Cell membrane [11] = assay: Induction of inner membrane permeabilization in Escherichia coli ML-35 ATCC 43587 at 1 to 4 times MIC by ONPG based assay; settings: DDE = dose-dependent effect
Cell membrane [12] = assay: Induction of cytoplasmic membrane depolarization in Pseudomonas aeruginosa ATCC 27853 assessed as increase in fluorescence intensity at 1 to 4 times MIC measured after 1 min by DiSC3-5 dye based fluorescence method; assay type: subcellular
[13] = Acute toxicity in Kunming mouse assessed as respiratory depression in lungs by measuring mortality at 19 to 30 mg/kg, ip within 1 hr; assay type: organism-based; settings: in vivo, dose 19-30 mg/kg
Staphylococcus aureus [14] = assay: Bactericidal activity against Staphylococcus aureus ATCC 25923 assessed as time required to kill bacteria at 2 times MIC by time-killing assay; assay type: functional
Klebsiella pneumoniae = assay: Antimicrobial activity against Klebsiella pneumoniae ATCC 700603 assessed as reduction of bacterial growth incubated for 18 hrs by CLSI protocol based broth microdilution method; assay type: functional
Lipopolysaccharide (LPS) = assay: Binding affinity to LPS (unknown origin) assessed as reduction in bactericidal activity against Escherichia coli ATCC 25922 at 2 times MIC incubated for 2 hrs in presence of 32 ug/ml of LPS by competitive binding assay
[15] = tested on: Staphylococcus epidermidis; assay: Antimicrobial activity against Staphylococcus epidermidis ATCC 12228 assessed as reduction of bacterial growth incubated for 18 hrs by CLSI protocol based broth microdilution method; assay type: functional
Escherichia coli [16] = assay: Antimicrobial activity against Escherichia coli ATCC 25922 assessed as swollen cell membrane measured after 0.5 to 2 hrs by SEM analysis; assay type: functional, organism-based; settings: time 0.5-2 hrs
Erythrocyte = assay: Hemolytic activity in mouse red blood cells assessed as release of hemoglobin incubated for 1 hr by microplate reader method; assay type: toxicity, cell-based
Staphylococcus aureus [17] = assay: Induction of drug resistance in Staphylococcus aureus ATCC 25923 assessed as increase in MIC after 10 passages by CLSI protocol based broth microdilution method; assay type: functional
Escherichia coli [18] = assay: Antimicrobial activity against Escherichia coli ATCC 25922 assessed as reduction of bacterial growth incubated for 18 hrs by CLSI protocol based broth microdilution method; assay type: functional
[19] = Acute toxicity in Kunming mouse assessed as swollen kidney cells at 25 mg/kg, ip by H and E staining based analysis; assay type: organism-based; settings: in vivo
[20] = Acute toxicity in ip dosed Kunming mouse assessed as lethal dose; assay type: organism-based; settings: in vivo
Escherichia coli [21] = assay: Antimicrobial activity against Escherichia coli ATCC 25922 assessed as breakage of cell membrane measured after 4 hrs by SEM analysis; assay type: functional, organism-based
Staphylococcus aureus [22] = assay: Antimicrobial activity against Staphylococcus aureus ATCC 25923 assessed as reduction of bacterial growth incubated for 18 hrs by CLSI protocol based broth microdilution method; assay type: functional
Cell membrane [23] = assay: Induction of cytoplasmic membrane depolarization in […] assessed as increase in fluorescence intensity at 1 to 4 times MIC measured after 1 min by DiSC3-5 dye based fluorescence method; assay type: subcellular

SMILES: CC[C@H](C)CCCCC(=O)N[C@@H](CCN)C(=O)N[C@H](C(=O)N[C@@H](CCN)C(=O)N[C@H]1CCNC(=O)[C@H]([C@@H](C)O)NC(=O)[C@H](CCN)NC(=O)[C@H](CCN)NC(=O)[C@H](CC(C)C)NC(=O)[C@@H](Cc2ccccc2)NC(=O)[C@H](CCN)NC1=O)[C@@H](C)O (X1-[Dab]T[Dab][Dab][Dab][dF]L[Dab][Dab]T; lactam 4-C)
- Activity [1]: Toxic
- Activity [2]: Toxic
- MIC (Pseudomonas aeruginosa): 2 µM (≈ 2.41 µg/mL)
- Activity (Staphylococcus aureus [3]): 0 CFU/g
- MIC (Enterococcus faecalis): 128 µM (≈ 154 µg/mL)
- fractional inhibitory concentration index (FICI) (Escherichia coli [4]): 1.25
- fractional inhibitory concentration index (FICI) (Escherichia coli [5]): 0.25
- fractional inhibitory concentration index (FICI) (Escherichia coli [6]): 0.3125
- CC50 at 1 h [7]: > 128 µM
- fractional inhibitory concentration index (FICI) (Staphylococcus aureus [8]): 0.75
- Activity [9]: Toxic
- Activity (Cell membrane [10]): Active
- MIC (Bacillus subtilis): 4 µM (≈ 4.81 µg/mL)
- Activity (Cell membrane [11]): Dde
- Activity (Cell membrane [12]): Active
- Activity [13]: Toxic
- Time (Staphylococcus aureus [14]): 6 h
- MIC (Klebsiella pneumoniae): 4 µM (≈ 4.81 µg/mL)
- Activity (Lipopolysaccharide (LPS)): Active
- MIC [15]: 16 µM (≈ 19.3 µg/mL)
- Activity (Escherichia coli [16]): Active
- HC10 (Erythrocyte): > 256 µM
- Activity (Staphylococcus aureus [17]): Active
- MIC (Escherichia coli [18]): 4 µM (≈ 4.81 µg/mL)
- Activity [19]: Toxic
- LD50 [20]: 25.5 mg/kg
- Activity (Escherichia coli [21]): Active
- MIC (Staphylococcus aureus [22]): 16 µM (≈ 19.3 µg/mL)
- Activity (Cell membrane [23]): Active
